These results are taken from ChEMBL document CHEMBL4482316, “Compounds for the inhibition of angiogenesis and use thereof” (2013).

Structures are written as SMILES. The source made the active and inactive calls. The rule behind the calls is not given here.

The test system of assay [1] is Rattus norvegicus. As to the kind of experiment: Inhibition of retinal angiogenesis in newborn Sprague-Dawley rat dosed intravitreally at P1 stage and P3 by epifluorescent microscopy. It is filed as functional, organism-based.
Assay [2] concerns Rattus norvegicus. As to the kind of experiment: Inhibition of oxygen-induced retinal angiogenesis in Sprague-Dawley rat dosed in right eye at stage at P9 and P11 during ischemic phase that follows oxygen exposure by epifluorescent microscopy. It counts as functional, organism-based.
For the next assay, the system named is Mus musculus. As to the kind of experiment: Inhibition of corneal neovascularization in C57 mouse dosed via implanted with pumps at 1 uL/hr for 7 days by fluorescence microscopy. It is filed as functional, organism-based.
A further assay has as its system K562. As to the kind of experiment: Inhibition of cell adhesion in human K562 cells at 0.5 uM pre-incubated for 30 mins before cell adhesion to fibronectin for 30 mins by crystal violet staining based assay. It is filed as functional.

On to `Cc1cc(C)c(S(=O)(=O)N[C@@H](CNC(=O)CO[C@@H]2C[C@@H](CNc3ccccn3)N(C(=O)OCc3ccccc3)C2)C(=O)O)c(C)c1`, for which the inhibition result in the assay on Rattus norvegicus [1], with Rattus norvegicus [2] and with Mus musculus was “Active” in each case.
Consider `O=C(CO[C@@H]1C[C@@H](CNc2ccccn2)N(C(=O)OCc2ccccc2)C1)NC[C@H](NC(=O)c1ccccc1Cl)C(=O)O`, for which the inhibition entry with Rattus norvegicus [2] and in the assay on Mus musculus was “Active” throughout.
As to `COc1ccnc(NC[C@@H]2C[C@@H](OCC(=O)NC[C@H](NC(=O)C3(C)CCCCC3)C(=O)O)CN2C(=O)CC(C)(C)C)c1`, the inhibition entry with Rattus norvegicus [2] and in the assay with Mus musculus was “Active” each time.
In the case of `C#CCOC(=O)N1C[C@H](OCC(=O)NC[C@H](NS(=O)(=O)c2c(C)cc(C)cc2C)C(=O)O)C[C@H]1CNc1ccccn1`, the inhibition result with Rattus norvegicus [2] and in the assay with Mus musculus was “Active” in each case.
In the case of `Cc1cc(C)c(S(=O)(=O)N[C@@H](CNC(=O)CO[C@@H]2C[C@@H](CNc3ccccn3)N(C(=O)CC(C)(C)C)C2)C(=O)O)c(C)c1`, the inhibition result in the assay on Rattus norvegicus [2] and in the assay with Mus musculus was “Active” each time.
Consider `Cc1cccc(C)c1C(=O)N[C@@H](CNC(=O)CO[C@@H]1C[C@@H](CNc2ccccn2)N(C(=O)OCc2ccccc2)C1)C(=O)O`, for which the inhibition entry with Rattus norvegicus [2] and in the assay on Mus musculus was “Active” in each case.
On to `O=C(CO[C@@H]1C[C@@H](CNc2ccccn2)N(C(=O)OCc2ccccc2)C1)NC[C@H](NC(=O)c1ccccc1[N+](=O)[O-])C(=O)O`, for which the inhibition entry in the assay on Rattus norvegicus [2] and in the assay on Mus musculus was “Active” throughout.
Consider `CC(C)(C)C(=O)N[C@@H](CNC(=O)CO[C@@H]1C[C@@H](CNc2ccccn2)N(C(=O)OCc2ccccc2)C1)C(=O)O`, for which the inhibition result in the assay with Rattus norvegicus [2] and in the assay with Mus musculus was “Active” in each case.
On to `O=C(CO[C@@H]1C[C@@H](CNc2ccccn2)N(C(=O)OCc2ccccc2)C1)NC[C@H](NC(=O)C1CCCCC1)C(=O)O`, for which the inhibition entry with Rattus norvegicus [2] and in the assay on Mus musculus was “Active” each time.
Regarding `Cc1cc(C)c(C(=O)N[C@@H](CNC(=O)CO[C@@H]2C[C@@H](CNc3ccccn3)N(C(=O)OCc3ccccc3)C2)C(=O)O)c(C)c1`, the inhibition entry in the assay with K562, in the assay with Rattus norvegicus [2] and in the assay with Mus musculus was “Active” throughout.
As for `CCC(C)(C)C(=O)N[C@@H](CNC(=O)CO[C@@H]1C[C@@H](CNc2ccccn2)N(C(=O)OCc2ccccc2)C1)C(=O)O`, the inhibition entry in the assay with Rattus norvegicus [2] and in the assay with Mus musculus was “Active” each time.
For `Cc1cc(C)c(S(=O)(=O)N[C@@H](CNC(=O)CO[C@@H]2C[C@@H](CNc3ccccn3)N(C(=O)OCC(C)C)C2)C(=O)O)c(C)c1`, the inhibition result with Rattus norvegicus [2] and with Mus musculus was “Active” each time.
Turning to `Cc1cc(C)c(S(=O)(=O)N[C@@H](CNC(=O)CO[C@@H]2C[C@@H](CNc3ccccn3)N(C(=O)NC3CCCC3)C2)C(=O)O)c(C)c1`, the inhibition result in the assay with Rattus norvegicus [2] and in the assay on Mus musculus was “Active” each time.
Turning to `COc1cccc(OC)c1C(=O)N[C@@H](CNC(=O)CO[C@@H]1C[C@@H](CNc2ccccn2)N(C(=O)OCc2ccccc2)C1)C(=O)O`, the inhibition entry with Rattus norvegicus [2] and in the assay on Mus musculus was “Active” each time.
